Reference: US5760034A, “Heterocyclic substituted naphthyridinones and methods and compositions employing them” (Schering Corporation, priority 1992, dated 1998)

Tests used:
SRS-A release = assay: inhibition of leukotriene (SRS-A) release in vitro, lung fragments of sensitized guinea pigs challenged with ovalbumin; type: cell-based; settings: 12 min preincubation, 20 μg/ml ovalbumin challenge 15 min; for inhibition at 10 µM: Cavia porcellus, guinea pig lung fragments
Experimental: In one such test procedure, the anti-allergy method of this invention is identified by tests which measure a compound's inhibition of leukotriene release in sensitized guinea pigs. Male Hartley guinea pigs (250-300 g) are sensitized with 5 mg ovalbumin injected i.p. and 5 mg injected s.c. in 1 ml saline on day 1 and 5 mg ovalbumin injected i.p. on day 4. The sensitized animals are used 3-4 weeks later at which time they weigh 450-500 g. Sensitized guinea pigs are killed by a blow to the head and the lungs removed and cleaned of visible connective tissue, trachea and large blood vessels. The lungs from individual animals are sliced into fragments approximately 1 mm in thickness using a McIlwain tissue chopper and then washed with oxygenated Tyrode's buffer. Weighed aliquots (approximately 400 mg wet weight) of lung are transferred into vials containing 2 ml of fresh Tyrode's solution (containing 10 mM cysteine) and incubated in the presence or absence of test compound for 12 min at 37° C. The tissues are then challenged with 20 μg ovalbumin/ml (final concentration) and incubated for 15 min.
To measure leukotriene release, an aliquot of supernatant fluid is extracted with 4 volumes of 100% ethanol. After removal of the precipitated protein, the leukotriene content is measured by a radioimmunoassay using [^3 H]LTC4 and antiserum obtained from New England Nuclear. […] Percent inhibition of lekotriene release is calculated by comparing for each lung the release in the presence of the test compound to that in the absence of test compound.

sensitized guinea pigs = assay: suppression of anaphylactic bronchospasm in ovalbumin-sensitized guinea pigs; type: in vivo, guinea pig; settings: 5 mg/kg, orally 2 hours before ovalbumin challenge; peak increase in intratracheal pressure within 15 minutes vs vehicle
Experimental: Male Hartley guinea pigs (250-300 g) are sensitized with 5 mg ovalbumin injected i.p. and 5 mg injected s.c. in 1 ml saline on day 1 and 5 mg ovalbumin injected i.p. on day 4. The sensitized animals are used 3-4 weeks later at which time they weigh 450-500 g. The sensitized guinea pigs are fasted overnight and the following morning are anesthetized with 0.9 ml/kg i.p. of dialurethane (0.1 g/ml diallylbarbituric acid, 0.4 g/ml ethylurea and 0.4 g/ml urethane). The trachea are cannulated and the animals are ventilated by a Harvard® rodent respirator at 50 strokes/minute with a stroke volume of 5 ml. A side arm to the tracheal cannula is connected to a pressure transducer (Harvard) to obtain a continuous measure of intratracheal pressure which is recorded on a polygraph (Harvard). The jugular vein is cannulated for the i.v. administration of substances. The sensitized guinea pigs are injected i.v. with 1 mg/kg propranolol, 5 mg/kg indomethacin and 2 mg/kg mepyramine given together in a volume of 1 ml/kg. […] Bronchoconstriction is measured as the peak increase in intratracheal pressure occurring within 15 minutes after antigen challenge.
Test compounds are administered orally 2 hours before challenge with ovalbumin. Suppression of anaphylactic bronchospasm is expressed as a percent inhibition of the peak increase in intratracheal pressure by comparison to a vehicle-treated control group.

Compound	inhibition at 10 µM (SRS-A release)	Inhibition of SRS-A release in vitro - Guinea Pig Lung 10 μM (SRS-A release)	Inhibition of anaphylactic bronchospasm, % Inhibition (sensitized guinea pigs)
N#Cc1cccc(-n2c(=O)c(N3CCCC3)cc3cccnc32)c1 [3-(1-Pyrrolidinyl)-1-(3-cyanophenyl)-1,8-naphthyridin-2-(1H )-one]	43%		
3-[1,2-Dihydro-3-(4-morpholinyl)-2-oxo-1,8-naphthyridin-1-yl]benzonitrile		66%	
O=c1c(N2CCCC2)cc2cccnc2n1-c1ccccc1 [3-(1-pyrrolidinyl)-1-phenyl-1,8-naphthyridin-2(1H)-one]	34%		61%
3-[3-(Hexahydro-1H-azepin-1-yl)-1,2-dihydro-2-oxo-1,8-naphthyridin-1-yl]-benzo-nitrile		46%	
O=c1c(N2CCOCC2)cc2cccnc2n1-c1ccccc1 [3-(4-Morpholinyl)-1-phenyl-1,8-naphthyridin-2(1H )-one]	65%		93%
O=c1c(N2CCCC2)cc2cccnc2n1-c1cccc(C(F)(F)F)c1 [3-(1-pyrrolidinyl)-1-(3-trifluoromethylphenyl)-1,8-naphthyridin-2(1H)-one]	46%		
